From US9839594B2, “Skin-moisturising or wrinkle-improving external composition and cosmetic composition” (KOREA INSTITUTE OF ORIENTAL MEDICINE, priority 2012, dated 2017)

How the values were obtained:
Assay type in all cases: in vivo, hairless mice (male HR-1)
[1] = system: back skin tissues of hairless mice; experiment: Epidermis thickness measured in H&E-stained tissues; details: 0.25% (w/v) topical, 12 weeks; UVB irradiation; p<0.05
Experimental: 7-week old male hairless mice (male HR-1, hairless mice, Japan SLC, Inc.), the experimental animals, were purchased from Central Lab. Animal Inc (Seoul, Korea). and used after an adaption period of a week. Only healthy animals were used in the experiments by observing general conditions during the adaption period. The breeding environment was maintained at 23±3° C. with 50±5% humidity with a light-dark cycle of 12 hours (7:00-19:00/lighting time). During the experiments, seven experimental animals per each experimental group were raised in a polycarbonate cage (200×320×145 mm, Three-shine Co., Daejeon, Korea), and the animals were given both mouse feed 5L79 (Charles river, USA) and tap water for drinking sterilized with UV rays to be consumed freely. […]
(§1) Ultraviolet irradiation was performed on the experimental groups except for the control group using a UVB lamp (Mineralight UV Display lamp, UVP, USA) three times a week for 8 weeks. […] The UV irradiance was measured by a radiometry instrument (Delta OHM, Italy), and then, was adjusted according to irradiation time. […]
The epidermis thickness was measured from the keratin layer to the epidermal basement membrane of tissues, which were stained with H&E in Experimental Example 3), by a ruler installed in a microscope, and the result is shown in FIG. 6.

[2] = system: back skin tissues of hairless mice; experiment: Histological observation of skin (H&E and Masson's trichome staining); details: 0.25% (w/v) topical, 12 weeks, UVB irradiation
Experimental: (§2) 7-week old male hairless mice (male HR-1, hairless mice, Japan SLC, Inc.), the experimental animals, were purchased from Central Lab. Animal Inc (Seoul, Korea). and used after an adaption period of a week. Only healthy animals were used in the experiments by observing general conditions during the adaption period. The breeding environment was maintained at 23±3° C. with 50±5% humidity with a light-dark cycle of 12 hours (7:00-19:00/lighting time). During the experiments, seven experimental animals per each experimental group were raised in a polycarbonate cage (200×320×145 mm, Three-shine Co., Daejeon, Korea), and the animals were given both mouse feed 5L79 (Charles river, USA) and tap water for drinking sterilized with UV rays to be consumed freely.
The experiments were carried out on the following groups: a control group (Con), a UV-treated group (UV), an excipient-treated group (Vehicle), and a group treated by the compound represented by Formula 1 (TM), and the samples were administered thereto. The sample administration was performed for 12 weeks in total by spreading the samples onto skins. For the compound treated group (TM), the compound was dissolved in dimethyl sulfoxide (DMSO), and subsequently in a mixed solution containing propylene glycol, ethanol, and poly ethylene glycol with a 1:1:1 ratio, and the dissolved formulation (the final concentration of the compound was 0.25% (w/v)) was applied to skins with the amount of 40 uL per 6 cm^2 once a day for 5 days a week. The excipient-treated group (Vehicle) were treated in the same manner as the compound treated group (TM), except the compound omitted.
as §1

skins of hairless mice = experiment: Skin wrinkle measurement with silicone skin replica of back skin of UV-irradiated hairless mice; details: 12 weeks
Experimental: as §2
The experiments were carried out on the following groups: a control group (Con), a UV-treated group (UV), an excipient-treated group (Vehicle), and a group treated by the compound represented by Formula 1 (TM), and the samples were administered thereto. The sample administration was performed for 12 weeks in total by spreading the samples onto skins. […]
(§3) Ultraviolet irradiation was performed on the experimental groups except for the control group using a UVB lamp (Mineralight UV Display lamp, UVP, USA) three times a week for 8 weeks. […] The UV irradiance was measured by a radiometry instrument (Delta OHM, Italy), and then, was adjusted according to irradiation time.
The degree of wrinkle formation was measured with a silicone skin replica of the back skins of the hairless mice of each experimental group. […] A shadow image, generated according to the thickness of the skin replica, was filed using a CCD camera, and the depth and length of wrinkles were measured using the Skin Visiometer VL 650 software, which is a computer image analysis system. […]

[3] = system: back skins of hairless mice; experiment: Transepidermal water loss (TEWL) analysis; details: 0.25% (w/v) topical, 12 weeks; UVB irradiation; Tewameter at 23° C., relative humidity 50%; p<0.01
Experimental: 7-week old male hairless mice (male HR-1, hairless mice, Japan SLC, Inc.), the experimental animals, were purchased from Central Lab. Animal Inc (Seoul, Korea). and used after an adaption period of a week. Only healthy animals were used in the experiments by observing general conditions during the adaption period. The breeding environment was maintained at 23±3° C. with 50±5% humidity with a light-dark cycle of 12 hours (7:00-19:00/lighting time). […]
as §3
To confirm the skin-moisturizing effect, the transepidermal water loss analysis was carried out with back skins of hairless mice in each experimental group. The transepidermal water loss level refers to the water quantity diffused from a skin, and if the level is high, it would mean that the skin moisturizing function is weakened, and that the function of innate skin barrier is damaged. […] The evaporated water quantity was then measured using Tewameter, and the skin moisturizing-ability was calculated.

[4] = compared to UV-treated group and excipient-treated group

`C[C@H]1CCC2(OC1)OC1CC3C4CC[C@@H]5CC(OC6OC(CO)C(O)C(O)C6OC6OC(CO)C(O)C(O)C6O)CC[C@]5(C)C4CC[C@]3(C)C1[C@@H]2C` (some centres unmarked) [compound represented by Formula 1] was tested, and the “epidermis thickness (keratin layer to epidermal basement membrane, FIG. 6)” value [1] was “significantly reduced”, the “collagen fibers (Masson's trichome staining, FIG. 5)” value ([2]; compared to UV-treated group) was “collagen fibers were increased” and the “cornified layers (H&E staining, FIG. 4)” value [2, 4] was “cornified layers were alleviated”. For the same compound, the “epidermis (H&E staining, observed, FIG. 4)” value [2, 4] was “thinner epidermises were observed”, the “degree of skin-wrinkle formation (skin replica image, FIG. 1)” value (skins of hairless mice; 0.25% (w/v) spread onto skin, 40 uL per 6 cm^2 once a day 5 days a week, UVB irradiation 8 weeks, compared to UV-treated group) was “thick wrinkles were alleviated” and the “mean wrinkle length (FIG. 2)” value (skins of hairless mice; 0.25% (w/v) topical, UVB irradiation, compared to UV group and excipient-treated group (Vehicle), p<0.0001) was “significantly reduced”. For the same compound, the “mean wrinkle depth (FIG. 3)” value (skins of hairless mice; 0.25% (w/v) topical, UVB irradiation, compared to UV-treated group, p<0.0001) was “significantly reduced” and the “skin water loss induced by UV rays (transepidermal water loss, FIG. 7)” value [3] was “significantly prevented”.
